Structures are written as SMILES.

This assay deals with P. falciparum 3D7 growth, pLDH absorbance. Kind of assay: P. falciparum 3D7 growth inhibition, dose response, strain 3D7 (AID 2305).

As for `O=C(Nc1ccc([N+](=O)[O-])cc1)Nc1cc(C(F)(F)F)ccc1F`, the IC50 was found to be 1070 nM. In the case of `CC(=O)c1cccc(NC(=O)N2CCCN(CCCCCNC(=O)/C=C/c3ccc(Cl)c(Cl)c3)CC2)c1` it was 1010 nM; in that of `CN(c1ccc(NC(=O)c2ccc(F)cc2)cc1)C1CCN(Cc2cccc(F)c2)C1` (stereo unspecified), 1410 nM; in that of `NS(=O)(=O)c1cccc(Nc2nccc(-c3cnn4ncccc34)n2)c1`, 660 nM. The figure for `CC[C@H]1CN(Cc2ccco2)CC[C@H]1CCCc1ccnc2ccc(O)cc12` is 1270 nM; for `CC(=O)N(C)C1CCN(Cc2cccc(-c3ccc(-c4nc5ccc(C(F)(F)F)cc5[nH]4)cc3)c2)C1` (stereo unspecified) it is 560 nM. The figure for `Cc1ccc2nc(C)cc(NN=Cc3cccc(Cl)c3)c2c1` is 740 nM. In the case of `COc1ccc2ccccc2c1CNCC1CCN(CC2CCCCC2)CC1`, the IC50 came out at 760 nM. The figure for `O=C(/C=C/c1ccc(Cl)c(Cl)c1)NCCCCN1CCCN(C(=O)Nc2cc(Cl)cc(Cl)c2)CC1` is 950 nM; for `COc1ccc(-c2csc(C(=O)NC3CCC(N4CCC(c5ccccc5C)CC4)CC3)c2)cc1` (stereo unspecified) it is 380 nM. For `N#CC(CC(=O)c1ccc(Cl)cc1)c1cccc(F)c1` (stereo unspecified), the IC50 was found to be 850 nM.

On to `COc1cc(NC(=O)C(c2ccc(Cl)cc2)C(C)C)cc(OC)c1` (stereo unspecified), for which the IC50 is 720 nM. The molecule `Oc1ccc2nc(NCCCc3ccccc3)nc(NCCc3ccccc3)c2c1` yielded an IC50 of 290 nM. In the case of `Cc1nn(C2CCS(=O)(=O)C2)c(C)c1C1Nc2ccccc2C(=O)N1Cc1ccc2c(c1)OCO2` (stereo unspecified) it was 510 nM; in that of `Cc1cc(Nc2c(C(N)=O)cnc3cc(-c4ccoc4)ccc23)ccc1N1CCN(C)CC1`, 800 nM; in that of `CC(C)[C@H](NC(=O)c1c(CN2CCC(N3CCCCC3)CC2)c(-c2ccccc2)nc2cc(O)ccc12)c1ccccc1`, 740 nM.

`CN(CCN)Cc1ccc(-c2ccc(-c3nc4ccc(F)cc4[nH]3)s2)cc1` registered an IC50 of 1070 nM. In turn, `CN1CCN(C(=O)CN2CCC3(CCC2=O)NC(=O)c2ccccc2O3)CC1` (stereo unspecified) showed an IC50 of 210 nM. `CC(C)(CNC(=O)C1CCN(CCOc2ccc(F)c(F)c2)CC1)c1nc(-c2ccc(Cl)c(O)c2)c(-c2ccncc2)[nH]1` displayed an IC50 of 320 nM. Molecule `CC(=O)N1N=C(c2ccc(F)cc2)Sc2c1nc(C1CCCCC1)n2C(C)=O` returned an IC50 of 890 nM. Molecule `Fc1ccc2nc(-c3cccc(-c4ccc(CN5CCC(CCN6CCCCC6)CC5)cc4)c3)[nH]c2c1` returned an IC50 of 140 nM. The figure for `NC(N)=NN=CC(=O)Nc1ccc(Cl)c(C(F)(F)F)c1` is 890 nM; for `CCc1c[nH]c2c(N3CCCCS3(=O)=O)cc(C(=O)N[C@@H](Cc3ccccc3)[C@H](O)CNCc3cccc(OC)c3)cc12` it is 910 nM.

`CC(Cc1ccc(OCCCCOc2ccccc2)cc1)NCCCn1ccnc1` (stereo unspecified) returned an IC50 of 170 nM. The figure for `CC(C)COc1ccc(Cl)cc1Nc1nc(-c2nc3ccccc3[nH]2)cs1` is 880 nM.

Consider `CC(=O)Nc1nc(C(=O)Nc2cccc(-c3ccc(-c4nc5c(C)cccc5[nH]4)cc3)c2)cs1`, for which the IC50 amounted to 230 nM. The figure for `CS(=O)(=O)CCCNCc1ccc(-c2cc3c(Nc4ccc(OCc5ccccc5)cc4)ncnc3cn2)o1` is 650 nM; for `Cc1ccc(NCc2cccc(F)c2)cc1S(=O)(=O)N[C@@H]1CCN(C#N)C1` it is 790 nM. As to `CCOc1cc2c(cc1S(=O)(=O)c1ccc(COc3ccc(C(F)(F)F)cc3)cc1)CCN(C)CC2`, the IC50 turned out to be 1020 nM. The molecule `COc1ccc(NC(=O)/C=C/c2ccccc2Cl)cc1OCCN1CCC(c2nc3ccccc3[nH]2)CC1` showed an IC50 of 860 nM. Regarding `COc1cc(OC)cc(-c2nn(-c3ccc([N+](=O)[O-])cc3Cl)c(=S)n2Cc2ccco2)c1`, the IC50 amounted to 840 nM. The figure for `Cc1nc(-c2ccc(-c3ccc(NC(=O)c4coc5ccc(N6C[C@@H](C)N(C)[C@@H](C)C6)cc45)cc3)c(C)c2)no1` is 770 nM; for `C#CCN1CCC2=C(C1)c1c(O)cc(C(C)C(C)CCc3ccc(F)cc3)cc1OC2(C)C` (stereo unspecified) it is 180 nM. In the case of `Cc1cccc2[nH]c(-c3cccc(-c4ccc(CN5CCCC5CN)cc4)c3)nc12` (stereo unspecified) it was 760 nM; in that of `CCCC(C)NC(=O)[C@H](Cc1ccccc1)NC(=O)c1ccc(O)c(-c2ccc(OC)cc2)c1` (stereo partly specified), 1240 nM; in that of `CCCCCOc1ccc(CC(C)NCC(O)c2cccc(Cl)c2)cc1` (stereo unspecified), 650 nM. The figure for `O=C(Nc1cccc(-c2nn3ccccc3c2-c2ccnc(Nc3ccccc3)n2)c1)c1cc(F)ccc1F` is 950 nM; for `CCNc1cc(C(=O)N[C@@H](Cc2ccccc2Cl)[C@H](O)CNC2CCCCC2)cc(N2CCCCS2(=O)=O)c1` it is 800 nM. In turn, `Clc1ccc(Nc2nc3ccc(Cl)cc3nc2Nc2ccc(Cl)cc2)cc1` came in with an IC50 of 130 nM. In the case of `COc1cccc(OC(C)(C)c2nc(N[C@@H](C)c3ccccc3)c3cn[nH]c3n2)c1` it was 970 nM. `Nc1nc(N)c2cc(Sc3ccc4ccccc4c3)ccc2n1` gave an IC50 of 20 nM.

In turn, `O=C(/C=C/c1cccc2c1OCO2)Nc1ccnc2ccncc12` displayed an IC50 of 900 nM. `CN1CCN(CCCN(Cc2cccc(-c3ccc(CNCc4ccc5c(c4)OCO5)cc3)c2)C(=O)Nc2ccccc2)CC1` gave an IC50 of 680 nM.

The molecule `COc1cccc(NC(=O)c2cc([N+](=O)[O-])ccc2NC(=O)CN2CCc3ccccc3C2)c1` yielded an IC50 of 590 nM.

As for `Cc1[nH]c2ccccc2c(=O)c1-c1ccc(Cl)cc1`, the IC50 was found to be 1000 nM. In the case of `O=C(Nc1cccc(F)c1)N[C@H]1CCN(CCCCCNC(=O)[C@@H]2C[C@H]2c2ccc(Cl)c(Cl)c2)C1` it was 990 nM; in that of `O=C(Nc1ccc(C(F)(F)F)cc1)c1ccc(S(=O)(=O)NC2CCN(Cc3ccccc3)C2)cc1` (stereo unspecified), 620 nM; in that of `Cc1cc(OCC(=O)Nc2ccc(-c3nc4ccccc4[nH]3)cc2)cc(C)c1Cl`, 740 nM. The figure for `Cc1cc(N[C@@H](Cc2ccccc2)C(=O)NCc2cccs2)nc(NCCOc2ccccc2)n1` is 1480 nM; for `c1ccc2c(Nc3ccc(Cc4ccc(Nc5c6ccccc6nc6ccccc56)cc4)cc3)c3ccccc3nc2c1` it is 160 nM. The figure for `CCOc1c(Br)cc(Cl)cc1CNCCCNc1nc2ccccc2[nH]1` is 690 nM. The molecule `CCc1cn(CCc2ccccc2)c2ccc(C(=O)N[C@@H](Cc3ccccc3)[C@H](O)CNC(C)(C)CCCC(C)C)cc12` gave an IC50 of 220 nM. `O=C(Cc1cccnc1)N(Cc1ccc(-c2ccc(CNCc3cccnc3)cn2)cc1)C1CCN(Cc2ccccc2)CC1` displayed an IC50 of 800 nM. The figure for `CC(C)NCC(=O)Nc1cccc(C(=O)Nc2cccc(C(F)(F)F)c2)c1` is 270 nM.

As to `CC(O)C1CCCCN1C(=O)c1ccc(-c2cccc(-c3nc4ccc(F)cc4[nH]3)c2)cc1` (stereo unspecified), the IC50 was 540 nM.

Turning to `N#Cc1ccc(N2CCN(Cc3ccc(-c4ccc(-c5nc6ccccc6[nH]5)s4)cc3)CC2)nc1`, the IC50 is 1080 nM.

The molecule `CCC1CN2CCc3c([nH]c4ccccc34)C2CC1CC1=NCCc2c1[nH]c1ccccc21` (stereo unspecified) came in with an IC50 of 740 nM. In the case of `CCOc1ccc(OCC)c(N2CCN(CCCCNC(=O)c3ccc(NC(=O)c4ccc(Cl)cc4)cc3)CC2)c1` it was 590 nM; in that of `O=C(Cc1ccc(Cl)cc1)NC1CCN(c2ccnc3cc(Cl)ccc23)C1` (stereo unspecified), 230 nM; in that of `COc1cccc2c(NN=Cc3ccc([N+](=O)[O-])cc3)ccnc12`, 890 nM. Molecule `[O-]c1n[n+](C2CCCCC2)no1` yielded an IC50 of 930 nM.
